Experimental data as given in patent US8592363B2, “ψεrack peptide composition and method for protection against tissue damage due to ischemia” (The Board of Trustees of the Leland Stanford Junior …, priority 2000, dated 2013).

Experiments:
ex vivo rat hearts = assay: Ex vivo administration of ψεRACK prior to ischemia: CPK release in perfusate of Langendorff-perfused hearts; conditions: 0.5 μM peptide for 20 minutes prior to 45 minutes global ischemia; 30 minute reperfusion; FIG. 1A
Experimental: Animals were anesthetized as described in Example 1 and their hearts were rapidly removed and cannulated for perfusion on a Langendorff apparatus. Hemodynamic parameters were monitored until stabilized, typically for 10-20 minutes. After equilibration, ψεRACK peptide (SEQ ID NO:2) or a scrambled ψεRACK peptide (SEQ ID NO:4) were delivered to the hearts via the coronary arteries using 0.5 μM of peptide for 20 minutes.
To induce global ischemia, flow to the hearts was interrupted for 45 minutes. The hearts were then reperfused for 30 minutes. During reperfusion, ischemic-induced cell damage was determined by measuring the activity of creatine phosphokinase (absorbance at 520 nm) in the perfusate. […]
Mice or rats were anesthetized with i.p. avertin, and their hearts were rapidly removed and cannulated via the aorta for reperfusion as described in the art (Colbert et al, 1997). […] The left ventricular pressure and real-time derivative (dP/dt) were monitored via a catheter placed in the ventricular apex. […]
To induce global ischemia, flow was interrupted for 45 minutes. […] During reperfusion, ischemia-induced cell damage was determined by measuring the activity of creatine phosphokinase (CPK) (absorbance at 520 nm) in the perfusate using a Sigma kit.

ex vivo hearts = assay: Functional recovery of ex vivo hearts after global ischemia (left ventricle pressure, dP/dt, perfusion pressure); parameters: species or system Mice or rats; conditions: 500 nM peptide prior to 30 minute global ischemia; 30 minute reperfusion
Experimental: In another study in support of the invention, the functional recovery of ex vivo hearts after an ischemic event was evaluated by monitoring, the isovolumic left ventricle pressure (LVP) at a constant pacing (3.3 Hz) and at a constant coronary flow (10 mL/min), as described in Example 1. Prior to the ischemic event, the hearts were treated with 500 nM ψεRACK (SEQ ID NO:2) or with scrambled ψεRACK peptide (SEQ ID NO:4). After the 30 minute global ischemia, the hearts were monitored during a 30 minute reperfusion period.
Mice or rats were anesthetized with i.p. avertin, and their hearts were rapidly removed and cannulated via the aorta for reperfusion as described in the art (Colbert et al, 1997). Care was taken to have the hearts perfused within 90 seconds of removal. The left ventricular pressure and real-time derivative (dP/dt) were monitored via a catheter placed in the ventricular apex. Hemodynamic parameters were archived every 20 seconds throughout the procedure. The hearts were perfused with oxygenated Krebs-Henseleit solution comprised of, in […], NaCl 120; KCl 5.8; NaHCO3 25; NaH2O4 1.2; MgSO4 1.2; CaCl2 1.0; and dextrose 10, pH 7.4 at 37 C.
After a 10-20 minute equilibration period, the hearts were treated with ψεRACK peptide (SEQ ID NO:2) or with scrambled ψεRACK peptide (SEQ ID NO:4) for 20 minutes. […]

whole rat hearts = assay: Ex vivo administration of ψεRACK after ischemia: CPK release in perfusate during reperfusion; conditions: 0.5 μM peptide for first 20 minutes of reperfusion after 45 minutes ischemia; 60 minute period; FIG. 3B
Experimental: In another study performed in support of the invention, ψεRACK was administered to hearts ex vivo after a prolonged ischemic period and was effective to provide protection from ischemic injury. As described in Example 2, whole rat hearts were perfused on a Langendorff apparatus. After a 30 minute equilibration period, global ischemia was induced by stopping fluid flow for 45 minutes. The hearts were then reperfused with or without ψεRACK peptide for 20 minutes followed by 40 minutes perfusion without peptide. During the 60 minutes following ischemia (20 minutes of peptide reperfusion plus 40 minutes perfusion), the CPK activity in the perfusate was analyzed.
Rat hearts were prepared as described in Example 1. After a 30 minute equilibration period, global ischemia was induced by interrupting fluid flow for 45 minutes. The hearts were then reperfused with 0.5 μM of ψεRACK peptide for 20 minutes, followed by 40 minutes of reperfusion without the peptide. As a control, some hearts were left untreated after ischemia. During the 60 minute period following ischemia, ischemia-induced cell damage was determined by monitoring the creatine phosphokinase (CPK) activity (absorbance at 520 nm) in the perfusate collected during reperfusion.

pig heart [1] = assay: In vivo administration during LAD balloon occlusion in pigs: infarct area of area at risk; conditions: for infarct of area at risk: about 20 μg peptide during first 10 minutes of 30 minute occlusion, hearts analysed five days later, average, p<0.005
Experimental: In another study in support of the invention, the ability of ψεRACK peptide to protect tissue from damage due to an ischemic or hypoxic event was evaluated by administering the peptide in vivo. As detailed in Example 3, ψεRACK peptide (SEQ ID NO:2) or scrambled ψεRACK peptide (SEQ ID NO:4) was administered to adult pigs during the first 10 minutes of a 30 minutes ischemic insult. Five days later, the hearts were analyzed for tissue damage.
Young adult female pigs, 35-40 kg in weight, were anesthetized and a catheter was introduced through the carotid artery into the heart. Using conventional intervention cardiology techniques, a wire was placed through a catheter and into the left anterior descending artery (LAD): A balloon was run over this wire to a site of occlusion where it was then inflated to block blood flow for 30 minutes. During the first 10 minutes of the ischemic insult, either the control scrambled ψεRACK peptide (SEQ ID NO:4, n=5) or the biologically active RACK peptide (SEQ ID NO:2, n=5) was delivered by diffusion through the balloon directly downstream of the occlusion. Approximately 20 μg peptide (˜400 ng per kg body weight) was administered.
After 30 minutes of occlusion, the balloon was removed and pigs were left to recover from surgery. Five days later, the pigs were euthanized and hearts were harvested. After heart removal, the LAD was occluded. With the occlusion in place, Evans Blue dye, which stains all areas not at risk of infarct in blue while leaving all areas with no access to blood flow red, was infused. Hearts were then cut into slices and stained with a tetrazolium red dye which stains all live areas red and infarcted dead tissue in white. Each heart had multiple tissue slices with distinctive areas marking the area at risk for ischemia and the infarcted area. From this the percent infarct per area at risk for each slice and for the entire heart was determined.

pig heart [2] = assay: Left ventricurogram (ejection fraction) in pigs after LAD occlusion; type: in vivo
Experimental: In another study, left ventricurogram (LVG) was performed in pigs (n=5) at three time points: (1) before occlusion of left anterior descending artery by balloon catheter (before occlusion); (2) immediately after reperfusion with 5 μM/10 mL of ψεRACK (post ψεRACK); and (3) before sacrifice five days later (5 days post), using 6 Fr. of pig-tail catheter. LVG was recorded by two views, right anterior oblique and left anterior oblique. Ejection fraction (EF), the percent of blood ejected in a beat, during maximum contraction, of the total maximum present in the left ventricle, was analyzed by the software, Plus Plus (Sanders Data Systems), and the averages of two views were evaluated. […] Accordingly, delivery of a ψεRACK peptide in vivo after ischemia is effective to reduce cell and tissue damage, as evidenced by an ejection fraction at least 10% greater than that of untreated cells or tissues.

[3] = pigs, 5 days post ischemia and treatment

Sequence | creatine phosphokinase (CPK) release during reperfusion (ex vivo rat hearts) | coronary perfusion pressure (ex vivo hearts) | elevated LVP end diastolic pressure (ex vivo hearts) | lower total CPK release versus untreated hearts (whole rat hearts) | infarct of area at risk (pig heart [1]) | reduction of percent infarct versus scrambled peptide control (pig heart [1]; infarct area as percent of area at risk, in grams of cardiac tissue, FIG. 4C) | ejection fraction after occlusion compared to control animals treated with scrambled peptide (pig heart [2]; pigs n=5, 5 μM/10 mL ψεRACK, immediately after reperfusion, FIG. 5) | ejection fraction compared with that before ischemia (pig heart [2]; [3]) | ejection fraction higher than the untreated animals (pig heart [2]; [3])
HDAPIGYD (pseudo-epsilon RACK octapeptide) [ψεRACK, ψεRACK octapeptide, εPKC specific agonist peptide] | close to the control hearts maintained under normoxia conditions | reduced | reduced | ~2 fold | 14.9±6% | more than 2 fold | higher ejection fraction | on par with that measured prior to ischemia | about 10%
PDYHDAGI (scrambled pseudo-epsilon RACK octapeptide) [scrambled ψεRACK, scrambled ψεRACK octapeptide, negative control, reference compound] | significant release of CPK |  |  |  | 36.5±0.3% |  |  |  | 
